From patent US8969565B2, “Imidazo[1,2-b]pyridazine-based compounds, compositions comprising them, and methods of their use” (Lexicon Pharmaceuticals, Inc., priority 2012, dated 2015)

Experiments:
AAK1 [1] = biological target: T1, AAK1 (Homo sapiens, UniProt Q2M2I8); assay: HEK281 cell-based assay (phospho-mu2 Western blot in transfected HEK293F cells); details: 3 hours incubation, read-out: CBA IC50
T1 construct: HA; expressed in transfected cells; host or cells: HEK293F
How it was run: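 After 3 hours at 37° C. with compound (five 3-fold-spaced concentrations, DMEM+0.5% FBS), transiently transfected HEK293F cells expressing full-length human AAK1 and Flag-tagged mu2 were lysed. mu2 phosphorylation was read by anti-phospho-mu2 immunoblot, normalized against total mu2 by anti-Flag blot.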

AAK1 [2] = biological target: T1, AAK1; assay: P81 filter plate assay; type: biochemical; details: full-length human AAK1, Mu2 substrate

T1 sequence (Q2M2I8 1-863 isoform Q2M2I8-2): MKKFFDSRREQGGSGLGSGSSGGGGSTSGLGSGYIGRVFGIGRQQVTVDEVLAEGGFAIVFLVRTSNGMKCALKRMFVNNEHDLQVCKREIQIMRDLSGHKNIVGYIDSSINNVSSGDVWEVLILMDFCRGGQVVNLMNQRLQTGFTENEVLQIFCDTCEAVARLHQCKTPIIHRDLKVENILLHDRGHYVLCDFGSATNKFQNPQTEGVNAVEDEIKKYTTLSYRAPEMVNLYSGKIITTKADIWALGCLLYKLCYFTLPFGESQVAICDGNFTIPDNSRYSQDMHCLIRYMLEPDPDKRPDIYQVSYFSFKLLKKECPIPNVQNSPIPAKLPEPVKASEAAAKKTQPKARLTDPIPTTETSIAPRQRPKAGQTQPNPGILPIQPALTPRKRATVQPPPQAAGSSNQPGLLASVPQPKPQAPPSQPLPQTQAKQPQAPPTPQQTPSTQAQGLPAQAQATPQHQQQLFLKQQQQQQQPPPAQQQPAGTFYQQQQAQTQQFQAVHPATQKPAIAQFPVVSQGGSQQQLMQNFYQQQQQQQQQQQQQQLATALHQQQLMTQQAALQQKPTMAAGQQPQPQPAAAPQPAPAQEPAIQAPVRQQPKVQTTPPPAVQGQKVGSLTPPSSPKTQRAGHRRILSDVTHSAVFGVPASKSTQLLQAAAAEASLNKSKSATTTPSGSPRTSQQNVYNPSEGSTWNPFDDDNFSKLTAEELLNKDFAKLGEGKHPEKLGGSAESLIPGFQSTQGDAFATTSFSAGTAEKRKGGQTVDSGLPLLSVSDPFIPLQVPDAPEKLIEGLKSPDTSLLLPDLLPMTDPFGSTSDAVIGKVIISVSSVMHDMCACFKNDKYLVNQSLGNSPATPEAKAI

| SMILES | IC50 (AAK1 [1]) | IC50 (AAK1 [2]) | melting point |
| --- | --- | --- | --- |
| CC(C)(C)NC(=O)N1CCN(c2ccc3ncc(Br)n3n2)CC1 [4-(3-Bromoimidazo[1,2-b]pyridazin-6-yl)-N-(tert-butyl)piperazine-1-carboxamide] | ≤ 100 nM | ≤ 10 nM | 199 to 200 °C |
| CC(C)(C)OC(=O)N1CCN(c2ccc3ncc(-c4ccccc4)n3n2)CC1 [4-(3-Phenyl-imidazo[1,2-b]pyridazin-6-yl)-piperazine-1-carboxylic acid tert-butyl ester] | ≤ 100 nM | ≤ 10 nM | 101 to 103 °C (dec.) |
| CCCCNc1ccc2ncc(-c3ccc(-c4nnn[nH]4)cc3)n2n1 [Butyl-{3-[4-(1H-tetrazol-5-yl)-phenyl]-imidazo[1,2-b]pyridazin-6-yl}-mine] | ≤ 1000 nM | – | 270 to 271 °C |
| CC(C)N(CCNc1ccc2ncc(Br)n2n1)C(=O)OC(C)(C)C [Example 5.6.72, [2-(3-Bromo-imidazo[1,2-b]pyridazin-6-ylamino)-ethyl]-isopropyl-carbamic acid tert-butyl ester] | – | – | 154 to 155 °C |
| CC(C)OC(=O)N1CCN(c2ccc3ncc(Br)n3n2)CC1 [Example 5.6.102, 4-(3-Bromo-imidazo[1,2-b]pyridazin-6-yl)-piperazine-1-carboxylic acid isopropyl ester] | – | – | 123 to 124 °C |

Now from value to molecule:

| IC50 (AAK1 [1]) | IC50 (AAK1 [2]) | melting point | SMILES |
| --- | --- | --- | --- |
| – | – | 138 to 139 °C | CC(C)(C)OC(=O)N1CCC[C@H]1CNc1ccc2ncc(I)n2n1 [Example 5.6.107, (S)-2-[(3-Iodo-imidazo[1,2-b]pyridazin-6-ylamino)-methyl]-pyrrolidine-1-carboxylic acid tert-butyl ester] |
| – | – | 115 to 116 °C | COc1cnccc1-c1cnc2ccc(N3CCCN(C(=O)OC(C)(C)C)CC3)nn12 [Example 5.6.121, 4-[3-(3-Methoxy-pyridin-4-yl)-imidazo[1,2-b]pyridazin-6-yl]-[1,4]diazepane-1-carboxylic acid tert-butyl ester] |
| ≤ 1000 nM | – | 99 to 101 °C | CCCCN(C)c1ccc2ncc(-c3ccc(CN)cc3)n2n1 [[3-(4-Aminomethyl-phenyl)-imidazo[1,2-b]pyridazin-6-yl]-butyl-methyl-amine] |
